Results from US20060069132A1, “Azolecarboxamide herbicides” (priority 2004, published 2006).

Legend:
corn = experiment: Test B pre-/postemergence herbicide test; format: in vivo, Zea mays; conditions: for Corn plant response rating: postemergence, visual rating
How it was run: (§1)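 Seeds were planted and treated preemergence with compounds formulated in a non-phytotoxic solvent mixture containing surfactant, while plants at the 1- to 4-leaf stage (2 to 18 cm) received postemergence sprays. Flooded paddy plants were grown to the 2-leaf stage. After 13 to 15 days in a greenhouse, injury was visually rated 0–100 against untreated controls.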

giant foxtail = experiment: Test B pre-/postemergence herbicide test; format: in vivo, Setaria faberi; conditions: for Foxtail, Giant plant response rating: postemergence, visual rating
How it was run: as §1

barnyardgrass [1] = experiment: Test B pre-/postemergence herbicide test; format: in vivo, Echinochloa crus-galli; conditions: for Barnyardgrass plant response rating: postemergence, visual rating
How it was run: (§2)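 Visual rating, 0 (no effect) to 100 (complete control), versus untreated controls after 13–15 d in greenhouse. Pre- and postemergence applications (postemergence plants 2–18 cm, 1–4 leaves); flooded paddy arm at 2-leaf stage. Compounds in non-phytotoxic solvent plus surfactant.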

barnyardgrass [2] = experiment: Test C flooded paddy test; format: in vivo, Echinochloa crus-galli; conditions: for Plant response rating, Barnyardgrass: 500 g ai/ha, visual rating after 12 to 14 days
How it was run: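 Visual rating, 0 (no effect) to 100 (complete control), vs. controls at 12–14 d in greenhouse. Postemergence: 1–4-leaf plants, 2–18 cm. Paddy: flooded, barnyardgrass at 2-leaf stage.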

[3] = test system: small flower umbrella sedge; experiment: Test B flooded paddy test; format: in vivo, Cyperus difformis; conditions: 1000 g ai/ha, visual rating, scale 0 to 100 (0 no effect, 100 complete control), 13 to 15 days
How it was run: (§3)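 Visual ratings, 0 (no effect) to 100 (complete control), made versus controls after 13–15 d greenhouse. Paddy plants treated at 2-leaf stage; postemergence plants at 1- to 4-leaf stage, 2–18 cm tall.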

cocklebur = experiment: Test B pre-/postemergence herbicide test; format: in vivo, Xanthium strumarium; conditions: for Cocklebur plant response rating: postemergence, visual rating
How it was run: as §2

rice [4] = experiment: Test C flooded paddy test; format: in vivo, Oryza sativa; conditions: for Plant response rating, Rice: 500 g ai/ha, visual rating after 12 to 14 days
How it was run: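 Postemergence sprays applied to plants 2 to 18 cm tall (1- to 4-leaf stage); paddy species grown to 2-leaf stage under flooding. After 12 to 14 days in greenhouse, visual rating versus untreated controls on 0–100 scale (0 no effect, 100 complete control).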

ducksalad [5] = experiment: Test B flooded paddy test; format: in vivo, Heteranthera limosa; conditions: 1000 g ai/ha, visual rating, scale 0 to 100 (0 no effect, 100 complete control), 13 to 15 days
How it was run: as §3

ducksalad [6] = experiment: Test C flooded paddy test; format: in vivo, Heteranthera limosa; conditions: for Plant response rating, Ducksalad: 500 g ai/ha, visual rating after 12 to 14 days
pigweed = experiment: Test B pre-/postemergence herbicide test; format: in vivo, Amaranthus retroflexus; conditions: for Pigweed plant response rating: postemergence, visual rating
How it was run: as §1

wild oat = experiment: Test B postemergence herbicide test; format: in vivo, Avena fatua; conditions: scale 0 (no effect) to 100 (complete control); for Oat, Wild plant response rating: postemergence, visual rating
How it was run: (§4)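 Plants grow to 1- to 4-leaf stage (2–18 cm) for postemergence spraying, or to 2-leaf stage for the paddy test. Formulated compound is applied. Greenhouse holding lasts 13–15 days. Response is scored visually relative to controls, 0 no effect to 100 complete control; a dash means no result.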

barnyardgrass [7] = experiment: Test B flooded paddy test; format: in vivo, Echinochloa crus-galli; conditions: 1000 g ai/ha, visual rating, scale 0 to 100 (0 no effect, 100 complete control), 13 to 15 days
How it was run: as §3

Surinam grass = experiment: Test B pre-/postemergence herbicide test; format: in vivo, Urochloa decumbens; conditions: for Surinam Grass plant response rating: postemergence, visual rating
How it was run: as §1

blackgrass = experiment: Test B postemergence herbicide test; format: in vivo, Alopecurus myosuroides; conditions: scale 0 (no effect) to 100 (complete control); for Blackgrass plant response rating: postemergence, visual rating
How it was run: as §3

morningglory = experiment: Test B pre-/postemergence herbicide test; format: in vivo, Ipomoea coccinea; conditions: for Morningglory plant response rating: postemergence, visual rating
How it was run: as §2

lambsquarters = experiment: Test B pre-/postemergence herbicide test; format: in vivo, Chenopodium album; conditions: for Lambsquarters plant response rating: postemergence, visual rating
How it was run: as §1

large crabgrass = experiment: Test B pre-/postemergence herbicide test; format: in vivo, Digitaria sanguinalis; conditions: for Crabgrass, Large plant response rating: postemergence, visual rating
How it was run: as §1

wheat = experiment: Test B postemergence herbicide test; format: in vivo, Triticum aestivum; set-up: key to Wheat plant response rating: 0 = no effect, 100 = complete control; conditions: scale 0 (no effect) to 100 (complete control); for Wheat plant response rating: postemergence, visual rating
How it was run: as §4

velvetleaf = experiment: Test B pre-/postemergence herbicide test; format: in vivo, Abutilon theophrasti; conditions: for Velvetleaf plant response rating: postemergence, visual rating
How it was run: as §1

rice [8] = experiment: Test B flooded paddy test; format: in vivo, Oryza sativa; conditions: 1000 g ai/ha, visual rating, scale 0 to 100 (0 no effect, 100 complete control), 13 to 15 days
How it was run: as §3

[9] = test system: smallflower umbrella sedge; experiment: Test C flooded paddy test; format: in vivo, Cyperus difformis; conditions: for Plant response rating, Sedge, Umbrella: 500 g ai/ha, visual rating after 12 to 14 days
[10] = 500 g ai/ha, visual rating 0-100, 0 no effect, 100 complete control, preemergence
[11] = Postemergence, 500 g ai/ha, visual rating after 13 to 15 days, scale 0 (no effect) to 100 (complete control)
[12] = 125 g ai/ha, scale 0 (no effect) to 100 (complete control)
[13] = preemergence, 125 g ai/ha, 0 to 100 scale, 0 is no effect, 100 is complete control
[14] = 62 g ai/ha, scale 0 to 100 (0 no effect, 100 complete control)
[15] = 125 g ai/ha, scale of 0 to 100, 0 is no effect, 100 is complete control
[16] = 250 g ai/ha, scale of 0 to 100, 0 is no effect, 100 is complete control
[17] = scale 0 to 100 (0 no effect, 100 complete control)
[18] = Postemergence, 500 g ai/ha, visual rating after 13 to 15 days
[19] = 500 g ai/ha, scale 0 (no effect) to 100 (complete control)
[20] = 125 g ai/ha, scale 0 to 100 (0 no effect, 100 complete control)

Structure (SMILES): CON=C(C)c1cccc(NC(=O)c2cc(C(C)(C)C)nn2C)c1 [Compound 106]
- Plant response rating, Corn (corn; [10]): 0
- Plant response rating, Corn (corn; [11]): 10
- Corn plant response rating (corn; [12]): 10
- Plant response rating, Corn (corn; [13]): 0
- Plant response rating, Foxtail, Giant (giant foxtail; [10]): 40
- Plant response rating, Foxtail, Giant (giant foxtail; [11]): 0
- Foxtail, Giant plant response rating (giant foxtail; [12]): 0
- Plant response rating, Foxtail, Giant (giant foxtail; [13]): 10
- Plant response rating, Barnyardgrass (barnyardgrass [1]; [10]): 70
- Plant response rating, Barnyardgrass (barnyardgrass [1]; [11]): 0
- Barnyardgrass plant response rating (barnyardgrass [1]; [12]): 0
- Barnyardgrass plant response rating (barnyardgrass [2]; [14]): 0
- Barnyardgrass plant response rating (barnyardgrass [2]; [15]): 0
- Barnyardgrass plant response rating (barnyardgrass [2]; [16]): 0
- Plant response rating, Barnyardgrass (barnyardgrass [2]; [17]): 0
- Sedge, Umbrella plant response rating [3]: 90
- Plant response rating, Cocklebur (cocklebur; [10]): 0
- Plant response rating, Cocklebur (cocklebur; [11]): 50
- Cocklebur plant response rating (cocklebur; [12]): 20
- Plant response rating, Cocklebur (cocklebur; [13]): 0
- Rice plant response rating (rice [4]; [14]): 0
- Rice plant response rating (rice [4]; [15]): 0
- Rice plant response rating (rice [4]; [16]): 0
- Plant response rating, Rice (rice [4]; [17]): 20
- Ducksalad plant response rating (ducksalad [5]): 80
- Ducksalad plant response rating (ducksalad [6]; [14]): 0
- Ducksalad plant response rating (ducksalad [6]; [15]): 0
- Ducksalad plant response rating (ducksalad [6]; [16]): 0
- Plant response rating, Ducksalad (ducksalad [6]; [17]): 0
- Plant response rating, Pigweed (pigweed; [10]): 70
- Plant response rating, Pigweed (pigweed; [11]): 20
- Pigweed plant response rating (pigweed; [12]): 10
- Plant response rating, Pigweed (pigweed; [13]): 0
- Plant response rating, Oat, Wild (wild oat; [18]): 20
- Oat, Wild plant response rating (wild oat; 125 g ai/ha): 10
- Barnyardgrass plant response rating (barnyardgrass [7]): 0
- Plant response rating, Surinam Grass (Surinam grass; [10]): 20
- Plant response rating, Surinam Grass (Surinam grass; [11]): 10
- Surinam Grass plant response rating (Surinam grass; [12]): 10
- Plant response rating, Surinam Grass (Surinam grass; [13]): 0
- Plant response rating, Blackgrass (blackgrass; [18]): 0
- Blackgrass plant response rating (blackgrass; 125 g ai/ha): 0
- Plant response rating, Morningglory (morningglory; [10]): 10
- Plant response rating, Morningglory (morningglory; [11]): 10
- Morningglory plant response rating (morningglory; [12]): 10
- Plant response rating, Lambsquarters (lambsquarters; [10]): 100
- Plant response rating, Lambsquarters (lambsquarters; [11]): 90
- Lambsquarters plant response rating (lambsquarters; [12]): 50
- Plant response rating, Lambsquarters (lambsquarters; [13]): 0
- Plant response rating, Crabgrass, Large (large crabgrass; [10]): 100
- Plant response rating, Crabgrass, Large (large crabgrass; [11]): 10
- Crabgrass, Large plant response rating (large crabgrass; [12]): 0
- Plant response rating, Crabgrass, Large (large crabgrass; [13]): 90
- Plant response rating, Wheat (wheat; [18]): 0
- Wheat plant response rating (wheat; 125 g ai/ha): 0
- Plant response rating, Velvetleaf (velvetleaf; [10]): 0
- Plant response rating, Velvetleaf (velvetleaf; [11]): 20
- Velvetleaf plant response rating (velvetleaf; [12]): 0
- Plant response rating, Velvetleaf (velvetleaf; [13]): 0
- Rice plant response rating (rice [8]): 0
- Sedge, Umbrella plant response rating [9, 14]: 0
- Sedge, Umbrella plant response rating [9, 15]: 0
- Sedge, Umbrella plant response rating [9, 16]: 30
- Plant response rating, Sedge, Umbrella [9, 17]: 80

Structure (SMILES): CC(=O)c1cccc(NC(=O)c2cc(C(C)(C)C)nn2CC(F)(F)F)c1 [Compound 126]
- Plant response rating, Corn (corn; [10]): 0
- Corn plant response rating (corn; [12]): 0
- Corn plant response rating (corn; [19]): 20
- Plant response rating, Corn (corn; [13]): 0
- Plant response rating, Foxtail, Giant (giant foxtail; [10]): 0
- Foxtail, Giant plant response rating (giant foxtail; [12]): 20
- Foxtail, Giant plant response rating (giant foxtail; [19]): 30
- Plant response rating, Foxtail, Giant (giant foxtail; [13]): 0
- Plant response rating, Barnyardgrass (barnyardgrass [1]; [10]): 60
- Barnyardgrass plant response rating (barnyardgrass [1]; [12]): 0
- Barnyardgrass plant response rating (barnyardgrass [1]; [19]): 30
- Plant response rating, Barnyardgrass (barnyardgrass [1]; [13]): 40
- Barnyardgrass plant response rating (barnyardgrass [2]; [14]): 0
- Barnyardgrass plant response rating (barnyardgrass [2]; [15]): 0
- Barnyardgrass plant response rating (barnyardgrass [2]; [16]): 20
- Plant response rating, Barnyardgrass (barnyardgrass [2]; [17]): 25
- Sedge, Umbrella plant response rating [3]: 80
- Plant response rating, Cocklebur (cocklebur; [10]): 0
- Cocklebur plant response rating (cocklebur; [12]): 50
- Cocklebur plant response rating (cocklebur; [19]): 100
- Plant response rating, Cocklebur (cocklebur; [13]): 0
- Rice plant response rating (rice [4]; [14]): 0
- Rice plant response rating (rice [4]; [20]): 0
- Rice plant response rating (rice [4]; [16]): 0
- Plant response rating, Rice (rice [4]; [17]): 0
- Ducksalad plant response rating (ducksalad [5]): 80
- Ducksalad plant response rating (ducksalad [6]; [14]): 0
- Ducksalad plant response rating (ducksalad [6]; [20]): 10
- Ducksalad plant response rating (ducksalad [6]; [16]): 25
- Plant response rating, Ducksalad (ducksalad [6]; [17]): 30
- Plant response rating, Pigweed (pigweed; [10]): 70
- Pigweed plant response rating (pigweed; [12]): 40
- Pigweed plant response rating (pigweed; [19]): 40
- Plant response rating, Pigweed (pigweed; [13]): 0
- Oat, Wild plant response rating (wild oat; 125 g ai/ha): 30
- Oat, Wild plant response rating (wild oat; 500 g ai/ha): 50
- Barnyardgrass plant response rating (barnyardgrass [7]): 10
- Plant response rating, Surinam Grass (Surinam grass; [10]): 20
- Surinam Grass plant response rating (Surinam grass; [12]): 20
- Surinam Grass plant response rating (Surinam grass; [19]): 20
- Plant response rating, Surinam Grass (Surinam grass; [13]): 0
- Blackgrass plant response rating (blackgrass; 125 g ai/ha): 0
- Blackgrass plant response rating (blackgrass; 500 g ai/ha): 0
- Plant response rating, Morningglory (morningglory; [10]): 20
- Morningglory plant response rating (morningglory; [12]): 0
- Morningglory plant response rating (morningglory; [19]): 30
- Plant response rating, Morningglory (morningglory; [13]): 0
- Plant response rating, Lambsquarters (lambsquarters; [10]): 90
- Lambsquarters plant response rating (lambsquarters; [12]): 0
- Lambsquarters plant response rating (lambsquarters; [19]): 60
- Plant response rating, Lambsquarters (lambsquarters; [13]): 0
- Plant response rating, Crabgrass, Large (large crabgrass; [10]): 30
- Crabgrass, Large plant response rating (large crabgrass; [12]): 40
- Crabgrass, Large plant response rating (large crabgrass; [19]): 40
- Plant response rating, Crabgrass, Large (large crabgrass; [13]): 0
- Wheat plant response rating (wheat; 125 g ai/ha): 0
- Wheat plant response rating (wheat; 500 g ai/ha): 0
- Plant response rating, Velvetleaf (velvetleaf; [10]): 20
- Velvetleaf plant response rating (velvetleaf; [12]): 0
- Velvetleaf plant response rating (velvetleaf; [19]): 40
- Plant response rating, Velvetleaf (velvetleaf; [13]): 0
- Rice plant response rating (rice [8]): 20
- Sedge, Umbrella plant response rating [9, 14]: 0
- Sedge, Umbrella plant response rating [9, 20]: 20
- Sedge, Umbrella plant response rating [9, 16]: 20
- Plant response rating, Sedge, Umbrella [9, 17]: 50
